# Source: patent US20240325398A1, “COMBINATION THERAPIES” (Infinity Pharmaceuticals, Inc., priority 2014, published 2024)
# What was measured:
# Test in all cases: Combination study, ATPLite 72 h, dose matrix (Synergy Score, CI50)
# WSU-NHL = tested on: WSU-NHL
# Description: (§1) Cells are thawed from a liquid nitrogen preserved state. Once cells have been expanded and divide at their expected doubling times, screening begins. Cells are seeded in growth media in either black 1536-well or 384-well tissue culture treated plates. Cells are then equilibrated in assay plates via centrifugation and placed in incubators attached to the Dosing Modules at 37° C. for 24 hours before treatment. […] These Tzero (To) plates are read using ultra-sensitive luminescence on Envision plate readers (Perkin Elmer). Treated assay plates are incubated with compound for 72 hours. After 72 hours, plates are developed for endpoint analysis using ATPLite. All data points are collected via automated processes, quality controlled and analyzed using Zalicus software.
# (§2) where T is treated cell count and V is untreated (vehicle) cell count (at 72 hours). I ranges from 0% (when T=V) to 100% (when T=0). […] The measure of effect in the experiment can be the inhibition of cellular response relative to the untreated level (vehicle alone). […] The inhibition ranges from 0% at the untreated level to 100% when T=0. Inhibition levels are negative for agents that actually increase levels. Other effect measures, such as an activity ratio r=T/V may be more appropriate for some assays. When activity ratios (e.g, fold increase over stimulated control) are being used, the effect can be measured using an induction 1=ln(T/V). With this definition, all effect expressions are the same as for inhibition.
# (§3) Growth Inhibition (GI) is used as a measure of cell viability. […] A GI reading of 100% represents complete growth inhibition—T72 compound-treated and T0 vehicle signals are matched. […] A GI reading of 200% represents complete death of all cells in the culture well. Compounds reaching an activity plateau of GI 200% are considered cytotoxic. GI is calculated by applying the following test and equation:
# (§4) Combination analysis data were collected in a 6×6 dose matrix. Synergy is calculated by comparing a combination's response to those of its single compound, against the drug-with-itself dose-additive reference model. Deviations from dose additivity may be assessed visually on an isobologram or numerically with a Combination Index (CI). […] Additive effect is CI=1.0. […] Antagonistic effect is CI>1.0.
# (§5) To measure combination effects in excess of Loewe additivity, a scalar measure to characterize the strength of synergistic interaction termed the Synergy Score is devised. The Synergy Score is calculated as:
# (§6) The fractional inhibition for each component agent and combination point in the matrix is calculated relative to the median of all vehicle-treated control wells. The Synergy Score equation integrates the experimentally-observed activity volume at each point in the matrix in excess of a model surface numerically derived from the activity of the component agents using the Loewe model for additivity. Additional terms in the Synergy Score equation (above) are used to normalize for various dilution factors used for individual agents and to allow for comparison of synergy scores across an entire experiment. The inclusion of positive inhibition gating or an Idata multiplier removes noise near the zero effect level, and biases results for synergistic interactions at that occur at high activity levels.
# (§7) Loewe Volume (Loewe Vol) is used to assess the overall magnitude of the combination interaction in excess of the Loewe additivity model. Loewe Volume is particularly useful when distinguishing synergistic increases in a phenotypic activity (positive Loewe Volume) versus synergistic antagonisms (negative Loewe Volume). […] This model defines additivity as a non-synergistic combination interaction where the combination dose matrix surface should be indistinguishable from either drug crossed with itself.
# RL = tested on: RL
# Description: as §1, §2, §3, §4, §5, §6, §7
# KARPAS-422 = tested on: KARPAS-422
# SU-DHL-10-epst = tested on: SU-DHL-10-epst
# OCI-Ly7 = tested on: OCI-Ly7
# Description: as §1
# The measure of effect in the experiment can be the inhibition of cellular response relative to the untreated level (vehicle alone). […] The inhibition ranges from 0% at the untreated level to 100% when T=0. Inhibition levels are negative for agents that actually increase levels.
# as §3, §4, §5, §6
# Loewe Volume (Loewe Vol) is used to assess the overall magnitude of the combination interaction in excess of the Loewe additivity model. Loewe Volume is particularly useful when distinguishing synergistic increases in a phenotypic activity (positive Loewe Volume) versus synergistic antagonisms (negative Loewe Volume). […] This model defines additivity as a non-synergistic combination interaction where the combination dose matrix surface should be indistinguishable from either drug crossed with itself. The calculation for Loewe additivity is:
structure (smiles),measurement,setting,value
CC[C@H](Nc1ncnc2[nH]cnc12)c1nc2cccc(F)c2c(=O)n1-c1ccccc1 [CAL-101],CI50 growth inhibition,WSU-NHL; combination with Dexamethasone,T (T=0.5 to <0.7)
same,CI50 inhibition,WSU-NHL; combination with Dexamethasone,T (T=0.5 to <0.7)
same,Synergy Score growth inhibition,WSU-NHL; combination with Dexamethasone,A3 (A3=>3)
same,Synergy Score inhibition,WSU-NHL; combination with Dexamethasone,A3 (A3=>3)
same,CI50 growth inhibition,WSU-NHL; combination with LEE011,T (T=0.5 to <0.7)
same,CI50 inhibition,WSU-NHL; combination with LEE011,S (S=0.01 to <0.5)
same,Synergy Score growth inhibition,WSU-NHL; combination with LEE011,A2 (A2=1 to <3)
same,Synergy Score inhibition,WSU-NHL; combination with LEE011,A2 (A2=1 to <3)
same,CI50 growth inhibition,WSU-NHL; combination with PCI-32765,S (S=0.01 to <0.5)
same,CI50 inhibition,WSU-NHL; combination with PCI-32765,S (S=0.01 to <0.5)
same,Synergy Score growth inhibition,WSU-NHL; combination with PCI-32765,A3 (A3=>3)
same,Synergy Score inhibition,WSU-NHL; combination with PCI-32765,A3 (A3=>3)
same,CI50 growth inhibition,WSU-NHL; combination with PD-0332991,S (S=0.01 to <0.5)
same,CI50 inhibition,WSU-NHL; combination with PD-0332991,S (S=0.01 to <0.5)
same,Synergy Score growth inhibition,WSU-NHL; combination with PD-0332991,A2 (A2=1 to <3)
same,Synergy Score inhibition,WSU-NHL; combination with PD-0332991,A2 (A2=1 to <3)
same,CI50 growth inhibition,RL; combination with Dexamethasone,T (T=0.5 to <0.7)
same,CI50 inhibition,RL; combination with Dexamethasone,T (T=0.5 to <0.7)
same,Synergy Score growth inhibition,RL; combination with Dexamethasone,A3 (A3=>3)
same,Synergy Score inhibition,RL; combination with Dexamethasone,A2 (A2=1 to <3)
same,CI50 growth inhibition,RL; combination with LEE011,T (T=0.5 to <0.7)
same,CI50 inhibition,RL; combination with LEE011,U (U=0.7 to <1)
same,Synergy Score growth inhibition,RL; combination with LEE011,A2 (A2=1 to <3)
same,Synergy Score inhibition,RL; combination with LEE011,A1 (A1=0.0001 to <1)
same,CI50 growth inhibition,RL; combination with PCI-32765,T (T=0.5 to <0.7)
same,CI50 inhibition,RL; combination with PCI-32765,S (S=0.01 to <0.5)
same,Synergy Score growth inhibition,RL; combination with PCI-32765,A2 (A2=1 to <3)
same,Synergy Score inhibition,RL; combination with PCI-32765,A2 (A2=1 to <3)
same,CI50 growth inhibition,RL; combination with PD-0332991,S (S=0.01 to <0.5)
same,CI50 inhibition,RL; combination with PD-0332991,S (S=0.01 to <0.5)
same,Synergy Score growth inhibition,RL; combination with PD-0332991,A2 (A2=1 to <3)
same,Synergy Score inhibition,RL; combination with PD-0332991,A2 (A2=1 to <3)
same,CI50 growth inhibition,KARPAS-422; combination with Dexamethasone,U (U=0.7 to <1)
same,CI50 inhibition,KARPAS-422; combination with Dexamethasone,T (T=0.5 to <0.7)
same,Synergy Score growth inhibition,KARPAS-422; combination with Dexamethasone,A3 (A3=>3)
same,Synergy Score inhibition,KARPAS-422; combination with Dexamethasone,A2 (A2=1 to <3)
same,CI50 growth inhibition,KARPAS-422; combination with LEE011,T (T=0.5 to <0.7)
same,CI50 inhibition,KARPAS-422; combination with LEE011,T (T=0.5 to <0.7)
same,Synergy Score growth inhibition,KARPAS-422; combination with LEE011,A2 (A2=1 to <3)
same,Synergy Score inhibition,KARPAS-422; combination with LEE011,A2 (A2=1 to <3)
same,CI50 growth inhibition,KARPAS-422; combination with PCI-32765,S (S=0.01 to <0.5)
same,CI50 inhibition,KARPAS-422; combination with PCI-32765,S (S=0.01 to <0.5)
same,Synergy Score growth inhibition,KARPAS-422; combination with PCI-32765,A3 (A3=>3)
same,Synergy Score inhibition,KARPAS-422; combination with PCI-32765,A2 (A2=1 to <3)
same,CI50 growth inhibition,KARPAS-422; combination with PD-0332991,S (S=0.01 to <0.5)
same,CI50 inhibition,KARPAS-422; combination with PD-0332991,S (S=0.01 to <0.5)
same,Synergy Score growth inhibition,KARPAS-422; combination with PD-0332991,A3 (A3=>3)
same,Synergy Score inhibition,KARPAS-422; combination with PD-0332991,A2 (A2=1 to <3)
same,CI50 growth inhibition,SU-DHL-10-epst; combination with Dexamethasone,S (S=0.01 to <0.5)
same,CI50 inhibition,SU-DHL-10-epst; combination with Dexamethasone,S (S=0.01 to <0.5)
same,Synergy Score growth inhibition,SU-DHL-10-epst; combination with Dexamethasone,A3 (A3=>3)
same,Synergy Score inhibition,SU-DHL-10-epst; combination with Dexamethasone,A2 (A2=1 to <3)
same,CI50 growth inhibition,SU-DHL-10-epst; combination with LEE011,T (T=0.5 to <0.7)
same,CI50 inhibition,SU-DHL-10-epst; combination with LEE011,T (T=0.5 to <0.7)
same,Synergy Score growth inhibition,SU-DHL-10-epst; combination with LEE011,A3 (A3=>3)
same,Synergy Score inhibition,SU-DHL-10-epst; combination with LEE011,A2 (A2=1 to <3)
same,CI50 growth inhibition,SU-DHL-10-epst; combination with PCI-32765,U (U=0.7 to <1)
same,CI50 inhibition,SU-DHL-10-epst; combination with PCI-32765,U (U=0.7 to <1)
same,Synergy Score growth inhibition,SU-DHL-10-epst; combination with PCI-32765,A2 (A2=1 to <3)
same,Synergy Score inhibition,SU-DHL-10-epst; combination with PCI-32765,A2 (A2=1 to <3)
same,CI50 growth inhibition,SU-DHL-10-epst; combination with PD-0332991,S (S=0.01 to <0.5)
same,CI50 inhibition,SU-DHL-10-epst; combination with PD-0332991,S (S=0.01 to <0.5)
same,Synergy Score growth inhibition,SU-DHL-10-epst; combination with PD-0332991,A3 (A3=>3)
same,Synergy Score inhibition,SU-DHL-10-epst; combination with PD-0332991,A3 (A3=>3)
same,CI50 growth inhibition,OCI-Ly7; combination with Dexamethasone,S (S=0.01 to <0.5)
same,CI50 inhibition,OCI-Ly7; combination with Dexamethasone,T (T=0.5 to <0.7)
same,Synergy Score growth inhibition,OCI-Ly7; combination with Dexamethasone,A3 (A3=>3)
same,Synergy Score inhibition,OCI-Ly7; combination with Dexamethasone,A2 (A2=1 to <3)
same,CI50 growth inhibition,OCI-Ly7; combination with LEE011,W (W=≥1)
same,Synergy Score growth inhibition,OCI-Ly7; combination with LEE011,A1 (A1=0.0001 to <1)
same,Synergy Score inhibition,OCI-Ly7; combination with LEE011,A1 (A1=0.0001 to <1)
